Source: PubChem BioAssay (NCI)
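Compound exposure: 48 hours, 5 concentrations, 96-well plates. At the GI50, growth is halved. TGI is the concentration that stops growth completely.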

Legend:
Assay in all cases: NCI-60 cell line screen, 48 h
KM12 colon = test system: KM12 colon
MCF7 breast = test system: MCF7 breast
COLO 205 colon = test system: COLO 205 colon
MALME-3M melanoma = test system: MALME-3M melanoma
TK-10 renal = test system: TK-10 renal
RPMI-8226 leukemia = test system: RPMI-8226 leukemia
HOP-62 NSCLC = test system: HOP-62 NSCLC
CCRF-CEM leukemia = test system: CCRF-CEM leukemia
HOP-92 NSCLC = test system: HOP-92 NSCLC
OVCAR-4 ovarian = test system: OVCAR-4 ovarian
SW-620 colon = test system: SW-620 colon
SF-295 CNS = test system: SF-295 CNS
T-47D breast = test system: T-47D breast
M14 melanoma = test system: M14 melanoma
OVCAR-8 ovarian = test system: OVCAR-8 ovarian
K-562 leukemia = test system: K-562 leukemia
OVCAR-5 ovarian = test system: OVCAR-5 ovarian
SK-MEL-28 melanoma = test system: SK-MEL-28 melanoma
HT29 colon = test system: HT29 colon
BT-549 breast = test system: BT-549 breast
SNB-19 CNS = test system: SNB-19 CNS
UACC-62 melanoma = test system: UACC-62 melanoma
LOX IMVI melanoma = test system: LOX IMVI melanoma
MOLT-4 leukemia = test system: MOLT-4 leukemia
PC-3 prostate = test system: PC-3 prostate
SF-268 CNS = test system: SF-268 CNS
HCT-116 colon = test system: HCT-116 colon
NCI/ADR-RES ovarian = test system: NCI/ADR-RES ovarian
NCI-H226 lung = test system: NCI-H226 lung
SK-MEL-5 melanoma = test system: SK-MEL-5 melanoma
SF-539 CNS = test system: SF-539 CNS
A549 NSCLC = test system: A549 NSCLC
UO-31 renal = test system: UO-31 renal
OVCAR-3 ovarian = test system: OVCAR-3 ovarian
DU-145 prostate = test system: DU-145 prostate
SN12C renal = test system: SN12C renal
HCC-2998 colon = test system: HCC-2998 colon
SNB-75 CNS = test system: SNB-75 CNS
CAKI-1 renal = test system: CAKI-1 renal
SK-OV-3 ovarian = test system: SK-OV-3 ovarian
NCI-H460 lung = test system: NCI-H460 lung
SR leukemia = test system: SR leukemia
MDA-MB-231 breast = test system: MDA-MB-231 breast
SK-MEL-2 melanoma = test system: SK-MEL-2 melanoma
IGROV1 ovarian = test system: IGROV1 ovarian
HS 578T breast = test system: HS 578T breast
HCT-15 colon = test system: HCT-15 colon
U251 CNS = test system: U251 CNS
A498 renal = test system: A498 renal
786-0 renal = test system: 786-0 renal
RXF 393 renal = test system: RXF 393 renal
UACC-257 melanoma = test system: UACC-257 melanoma
NCI-H23 lung = test system: NCI-H23 lung
MDA-MB-435 = test system: MDA-MB-435
ACHN renal = test system: ACHN renal
NCI-H522 lung = test system: NCI-H522 lung
HL-60(TB) leukemia = test system: HL-60(TB) leukemia

`CCCCCCCC/C=C/CCCCCCCC(=O)OC[C@H]1O[C@@H](n2ccc(N)nc2=O)C(F)(F)[C@@H]1O` showed a GI50 (KM12 colon) of over 100 µM, a TGI (KM12 colon) of over 100 µM and a GI50 (MCF7 breast) of under 0.01 µM. The TGI (MCF7 breast) was over 100 µM, the GI50 (COLO 205 colon) was 0.131 µM and the TGI (COLO 205 colon) was over 37.9 µM. The GI50 (MALME-3M melanoma) was 0.0463 µM, the TGI (MALME-3M melanoma) was over 100 µM and the GI50 (TK-10 renal) was 2.38 µM. It also gave a TGI (TK-10 renal) of over 100 µM, a GI50 (RPMI-8226 leukemia) of 0.128 µM and a TGI (RPMI-8226 leukemia) of over 100 µM. For the same compound, the GI50 (HOP-62 NSCLC) was under 0.0209 µM, the GI50 (CCRF-CEM leukemia) was under 0.0158 µM and the TGI (CCRF-CEM leukemia) was 2.09 µM. The GI50 (HOP-92 NSCLC) was 0.141 µM, the TGI (HOP-92 NSCLC) was 34.7 µM and the GI50 (OVCAR-4 ovarian) was over 100 µM. The TGI (OVCAR-4 ovarian) was over 100 µM, the GI50 (SW-620 colon) was 0.0759 µM and the TGI (SW-620 colon) was over 100 µM. For the same compound, the GI50 (SF-295 CNS) was 0.0242 µM, the TGI (SF-295 CNS) was 0.555 µM and the GI50 (T-47D breast) was 0.152 µM. The TGI (T-47D breast) was over 100 µM, the GI50 (M14 melanoma) was under 0.0115 µM and the TGI (M14 melanoma) was 0.0273 µM. The GI50 (OVCAR-8 ovarian) was under 0.01 µM, the GI50 (K-562 leukemia) was 0.307 µM and the TGI (K-562 leukemia) was over 100 µM. The GI50 (OVCAR-5 ovarian) was 0.724 µM, the TGI (OVCAR-5 ovarian) was over 100 µM and the GI50 (SK-MEL-28 melanoma) was over 51.1 µM. It also gave a TGI (SK-MEL-28 melanoma) of over 100 µM, a GI50 (HT29 colon) of 0.097 µM and a TGI (HT29 colon) of over 100 µM. For the same compound, the TGI (BT-549 breast) was over 60.6 µM, the GI50 (SNB-19 CNS) was under 0.0419 µM and the TGI (SNB-19 CNS) was over 43.5 µM. For the same compound, the GI50 (UACC-62 melanoma) was 0.0331 µM, the TGI (UACC-62 melanoma) was over 100 µM and the GI50 (LOX IMVI melanoma) was 0.0418 µM. It also gave a TGI (LOX IMVI melanoma) of over 35.9 µM, a GI50 (MOLT-4 leukemia) of 0.0352 µM and a TGI (MOLT-4 leukemia) of 5.02 µM. The GI50 (PC-3 prostate) was 0.752 µM, the TGI (PC-3 prostate) was over 100 µM and the GI50 (SF-268 CNS) was under 0.0224 µM. It also gave a TGI (SF-268 CNS) of 19.7 µM, a GI50 (HCT-116 colon) of under 0.018 µM and a TGI (HCT-116 colon) of over 100 µM. The GI50 (NCI/ADR-RES ovarian) was under 0.0217 µM, the TGI (NCI/ADR-RES ovarian) was over 100 µM and the GI50 (NCI-H226 lung) was 0.333 µM. It also gave a TGI (NCI-H226 lung) of over 61.3 µM, a GI50 (SK-MEL-5 melanoma) of 0.0327 µM and a TGI (SK-MEL-5 melanoma) of over 100 µM. It also gave a GI50 (SF-539 CNS) of under 0.0183 µM, a TGI (SF-539 CNS) of 1.17 µM and a GI50 (A549 NSCLC) of under 0.0174 µM. The TGI (A549 NSCLC) was over 70.1 µM, the GI50 (UO-31 renal) was under 0.0136 µM and the TGI (UO-31 renal) was 0.125 µM. It also gave a GI50 (OVCAR-3 ovarian) of 8.86 µM, a TGI (OVCAR-3 ovarian) of over 100 µM and a GI50 (DU-145 prostate) of under 0.019 µM. It also gave a TGI (DU-145 prostate) of over 46.2 µM, a GI50 (SN12C renal) of 0.0388 µM and a TGI (SN12C renal) of over 47.2 µM. It also gave a GI50 (HCC-2998 colon) of 17.5 µM, a TGI (HCC-2998 colon) of over 100 µM and a GI50 (SNB-75 CNS) of 0.36 µM. The TGI (SNB-75 CNS) was over 66.1 µM, the GI50 (CAKI-1 renal) was under 0.0135 µM and the TGI (CAKI-1 renal) was 3.59 µM. It also gave a GI50 (SK-OV-3 ovarian) of 0.272 µM, a TGI (SK-OV-3 ovarian) of over 100 µM and a GI50 (NCI-H460 lung) of under 0.0212 µM. It also gave a TGI (NCI-H460 lung) of over 33.4 µM, a GI50 (SR leukemia) of under 0.0134 µM and a TGI (SR leukemia) of 11.1 µM. It also gave a GI50 (MDA-MB-231 breast) of 7.98 µM, a TGI (MDA-MB-231 breast) of over 100 µM and a GI50 (SK-MEL-2 melanoma) of 14.2 µM. The TGI (SK-MEL-2 melanoma) was over 100 µM, the GI50 (IGROV1 ovarian) was 19 µM and the TGI (IGROV1 ovarian) was over 100 µM. For the same compound, the GI50 (HS 578T breast) was over 59.9 µM, the TGI (HS 578T breast) was over 100 µM and the GI50 (HCT-15 colon) was 0.117 µM. For the same compound, the TGI (HCT-15 colon) was over 100 µM, the GI50 (U251 CNS) was under 0.016 µM and the TGI (U251 CNS) was 25.3 µM. It also gave a GI50 (A498 renal) of under 0.0218 µM, a TGI (A498 renal) of 6.32 µM and a GI50 (786-0 renal) of under 0.0139 µM. It also gave a TGI (786-0 renal) of 2.56 µM, a GI50 (RXF 393 renal) of 0.0675 µM and a TGI (RXF 393 renal) of over 49.2 µM. The GI50 (UACC-257 melanoma) was 0.039 µM, the TGI (UACC-257 melanoma) was over 100 µM and the GI50 (NCI-H23 lung) was under 0.0143 µM. The TGI (NCI-H23 lung) was 21.1 µM, the GI50 (MDA-MB-435) was under 0.0266 µM and the TGI (MDA-MB-435) was over 100 µM. The GI50 (ACHN renal) was under 0.01 µM, the TGI (ACHN renal) was 6.07 µM and the GI50 (NCI-H522 lung) was 0.201 µM. It also gave a TGI (NCI-H522 lung) of over 100 µM, a GI50 (HL-60(TB) leukemia) of 0.0217 µM and a TGI (HL-60(TB) leukemia) of 28 µM.
